Test results reported in PMC5632672, “Generation of Persister Cells of Pseudomonas aeruginosa and Staphylococcus aureus by Chemical Treatment and Evaluation of Their Susceptibility to Membrane-Targeting Agents” (Frontiers in Microbiology, 2017).
≈ marks a conversion by molar mass, not a printed value. Read-outs that look alike come from different tables or passages of the source. Blank lines part the entries; values can stand above or below the molecule they belong to. Positions of bridges follow the written chain, without caps; N, C: chain ends. Non-standard residues stand in square brackets, D forms with d. Residues, ends and D or L forms follow the SMILES beside them. *: point of attachment. X1 = CC[C@H](C)CCCCC(=O)*; Dab = NCC[C@H](N)C(=O)O

Legend:
[1] = system: Pseudomonas aeruginosa ATCC 27853; assay: Induction of persistence with CCCP, survival to antibiotic treatment; settings: P. aeruginosa
[2] = system: Pseudomonas aeruginosa ATCC 27853; assay: MIC and MBC by standard microdilution after revival of CCCP-induced persisters
[3] = system: Pseudomonas aeruginosa ATCC 27853
[4] = system: Staphylococcus aureus ATCC 33591
[5] = system: Pseudomonas aeruginosa ATCC 27853; assay: Flow cytometry, oxidoreductase activity with RedoxSensor Green; format: cell-based; settings: P. aeruginosa, 3-h exposure to CCCP 200 μg/mL, Figure 4A
Method: (§1) The metabolic activity of CCCP-induced PCs of P. aeruginosa and S. aureus was also evaluated by determining the oxidoreductase activity through flow cytometry. […] Then, bacterial suspensions were stained with the RedoxSensor^TM Green reagent (RSG) (BacLight^TM RedoxSensor^TM Green Vitality Kit, Thermo Fisher Scientific, Waltham, MA, United States) according to the manufacturer’s instructions. Briefly, 1 mL of the bacterial suspension was incubated with 1 μL (P. aeruginosa) or 0.1 μL (S. aureus) of 1 mM RSG for 10 min at 37°C in the dark. Stained samples were analyzed with a BD Accuri C6 flow cytometer (BD Biosciences, Mountain View, CA, United States) equipped with a 488 nm laser and a 533/30 nm optical filter. Data were collected and analyzed with BD Accuri C6 software (BD Biosciences), and results were plotted as cell counts versus fluorescence intensity.

[6] = system: Staphylococcus aureus ATCC 33591; assay: as above; format: cell-based; settings: S. aureus, 3-h exposure to CCCP 400 μg/mL, Figure 4B
Method: as §1

[7] = system: Pseudomonas aeruginosa ATCC 27853; assay: Revival assay of CCCP-induced persisters; format: cell-based; settings: P. aeruginosa, CCCP 200 μg/mL 3 h, washed, fresh LB
[8] = system: Staphylococcus aureus ATCC 33591; assay: Isothermal microcalorimetry, bacterial heat production; settings: S. aureus stationary-phase culture incubated with CCCP 400 μg/mL, recorded for 24 h, Figure 3
[9] = system: Pseudomonas aeruginosa ATCC 27853; assay: Effect of CCCP on cell viability, CFU counting; settings: P. aeruginosa stationary-phase cultures, CCCP at concentrations up to 200 μg/mL, 3 h, 37°C, Figure 1
[10] = system: Staphylococcus aureus ATCC 33591; format: cell-based; settings: S. aureus, CCCP 400 μg/mL 3 h, washed, fresh LB
[11] = system: Pseudomonas aeruginosa ATCC 27853; assay: Isothermal microcalorimetry, bacterial heat production; format: cell-based; settings: P. aeruginosa stationary-phase culture incubated with CCCP 200 μg/mL, recorded for 24 h, Figure 3
[12] = system: Staphylococcus aureus ATCC 33591; assay: Induction of persistence with CCCP, survival to antibiotic treatment; settings: S. aureus
[13] = system: Staphylococcus aureus ATCC 33591; assay: Effect of CCCP on cell viability, CFU counting; settings: S. aureus stationary-phase cultures, CCCP at concentrations up to 400 μg/mL, 3 h, 37°C, Figure 1
[14] = system: Staphylococcus aureus ATCC 33591; assay: MIC and MBC by standard microdilution after revival of CCCP-induced persisters
[15] = ATCC27853, read-out: MBC, CCCP-pretreated
[16] = ATCC27853, read-out: MBC, CCCP-untreated
[17] = CCCP 200 μg/mL for 3 h, then meropenem 10 μg/mL 3 h, Figure 2C
[18] = CCCP 400 μg/mL for 3 h, then gentamicin 10 μg/mL 3 h, Figure 2F
[19] = ATCC33591, 24 h, read-out: MIC, CCCP-untreated
[20] = ATCC33591, read-out: MBC, CCCP-pretreated
[21] = ATCC33591, read-out: MBC, CCCP-untreated
[22] = ATCC33591, read-out: MIC, CCCP-pretreated

Molecule: O=C(O)c1cn(C2CC2)c2cc(N3CCNCC3)c(F)cc2c1=O [Ciprofloxacin]
percentage of stationary-phase culture surviving antibiotic exposure, no CCCP pretreatment ([1]; ciprofloxacin 5 μg/mL, 3 h, SPB/LB, Figure 2A): less than 0.01% | MIC ([2]; ATCC27853, 24 h, read-out: MIC, CCCP-untreated): 0.5 µg/mL (≈ 1.51 µM) | MBC [2, 15]: 1 µg/mL (≈ 3.02 µM) | MBC [2, 16]: 1 µg/mL (≈ 3.02 µM) | MIC ([2]; ATCC27853, read-out: MIC, CCCP-pretreated): 0.5 µg/mL (≈ 1.51 µM)

Molecule: CC[C@H](C)CCCCC(=O)N[C@@H](CCN)C(=O)N[C@H](C(=O)N[C@@H](CCN)C(=O)N[C@H]1CCNC(=O)[C@H]([C@@H](C)O)NC(=O)[C@H](CCN)NC(=O)[C@H](CCN)NC(=O)[C@H](CC(C)C)NC(=O)[C@@H](CC(C)C)NC(=O)[C@H](CCN)NC1=O)[C@@H](C)O [Colistin, colistin] (X1-[Dab]T[Dab][Dab][Dab][dL]L[Dab][Dab]T; lactam 4-C (inferred); N-terminus assumed)
concentration eradicating persister-enriched cultures to the limit of detection (complete killing) [3]: 3.5 µM | MBC, P. aeruginosa CCCP-pretreated ([3]; ATCC 27853, 3 h): 3.5 µM (≈ 4.09 µg/mL) | MBC, P. aeruginosa CCCP-untreated ([3]; ATCC 27853, 3 h): 1.75 µM (≈ 2.05 µg/mL) | fold increase in MBC against CCCP-pretreated vs CCCP-untreated bacteria ([3]; P. aeruginosa): 2 fold

Molecule: [WKKIRVRLSA]2-K-8Aoc-NH2 [Den-SB056]
MBC, S. aureus CCCP-pretreated ([4]; persister-enriched cultures (CCCP 400 μg/mL, 3 h), SPB/LB (daptomycin: deionized water with 1% LB and 75 μg/mL CaCl2), 1 × 10^6 CFU/mL, 3 h, 37°C, CFU counting): 1.75 µM | MBC, S. aureus CCCP-untreated ([4]; stationary-phase cultures, CCCP-untreated, SPB/LB (daptomycin: deionized water with 1% LB and 75 μg/mL CaCl2), 1 × 10^6 CFU/mL, 3 h, 37°C, CFU counting): 1.75 µM | MBC, P. aeruginosa CCCP-pretreated ([3]; persister-enriched cultures (CCCP 200 μg/mL, 3 h), SPB/LB, 1 × 10^6 CFU/mL, 3 h, 37°C, CFU counting): 1.75 µM | MBC, P. aeruginosa CCCP-untreated ([3]; stationary-phase cultures, CCCP-untreated, SPB/LB, 1 × 10^6 CFU/mL, 3 h, 37°C, CFU counting): 0.87 µM

Molecule: N#CC(C#N)=NNc1cccc(Cl)c1 [CCCP, Carbonyl cyanide m-chlorophenylhydrazone]
reduction in RSG fluorescence vs untreated control [5]: approximately three | reduction in RSG fluorescence vs untreated control [6]: approximately three | lag phase before resuming replication at a normal rate, optical density ([7]; OD600, Figure 5B): approximately 1 h | time lag in heat production after CCCP removal (time of maximum heat production) ([7]; microcalorimetry, Figure 5A): 1.5 h | basal heat production [8]: < 5 μWh | effect on cell viability [9]: did not exert a significant killing effect | fold increase in the number of persister-like cells vs untreated control ([1]; CCCP 200 μg/mL for 3 h, then ciprofloxacin 5 μg/mL 3 h, Figure 2A): 5000 fold | fold increase in the percentage of bacteria tolerant to meropenem [1, 17]: 200 fold | percentage of starting bacterial population tolerant to meropenem after CCCP pretreatment [1, 17]: 35% | lag phase before resuming replication at a normal rate, optical density ([10]; OD600, Figure 5D): approximately 1 h | delay in heat production after CCCP removal (time of maximum heat production) ([10]; microcalorimetry, Figure 5C): 1 h | basal heat production [11]: < 5 μWh | fold increase in survival to gentamicin [12, 18]: approximately 500 times | percentage of cells becoming persisters (surviving gentamicin) after CCCP pretreatment [12, 18]: 20% | percentage of initial population surviving levofloxacin exposure after CCCP pretreatment ([12]; CCCP 400 μg/mL for 3 h, then levofloxacin 2.5 μg/mL 3 h, Figure 2D): approximately 60% | effect on cell viability [13]: only a minor effect on cell viability

MIC [14, 19]: 0.5 µg/mL (≈ 1.38 µM) | MIC [14, 22]: 0.5 µg/mL (≈ 1.38 µM)
Molecule: C[C@H]1COc2c(N3CCN(C)CC3)c(F)cc3c(=O)c(C(=O)O)cn1c23 [Levofloxacin, levofloxacin]
MBC [14, 20]: 0.5 µg/mL (≈ 1.38 µM) | MBC [14, 21]: 0.5 µg/mL (≈ 1.38 µM) | percentage of initial inoculum tolerating antibiotic treatment, no CCCP pretreatment ([12]; levofloxacin 2.5 μg/mL, 3 h, SPB/LB, Figure 2D): approximately 0.5%

MIC [14, 19]: 20 µg/mL (≈ 41.9 µM) | MIC [14, 22]: 20 µg/mL (≈ 41.9 µM)
Molecule: CNC(C)C1CCC(N)C(OC2C(N)CC(N)C(OC3OCC(C)(O)C(NC)C3O)C2O)O1 (centres unmarked) [Gentamicin]
MBC [14, 20]: 40 µg/mL (≈ 83.8 µM) | MBC [14, 21]: 40 µg/mL (≈ 83.8 µM)

Molecule: CCCCCCCCCC(=O)N[C@@H](Cc1c[nH]c2ccccc12)C(=O)N[C@H](CC(N)=O)C(=O)N[C@@H](CC(=O)O)C(=O)N[C@@H]1C(=O)NCC(=O)N[C@@H](CCCN)C(=O)N[C@@H](CC(=O)O)C(=O)N[C@H](C)C(=O)N[C@@H](CC(=O)O)C(=O)NCC(=O)N[C@H](CO)C(=O)N[C@@H]([C@H](C)CC(=O)O)C(=O)N[C@@H](CC(=O)c2ccccc2N)C(=O)O[C@@H]1C [Daptomycin]
MBC, S. aureus CCCP-pretreated ([4]; ATCC 33591, 3 h): 112 µM (≈ 182 µg/mL) | MBC, S. aureus CCCP-untreated ([4]; ATCC 33591, 3 h): 7 µM (≈ 11.3 µg/mL) | fold higher concentration required to kill CCCP-induced persisters than untreated bacteria (MBC) ([4]; S. aureus): 16 fold | bactericidal concentration against persisters relative to those of the tested AMPs ([4]; S. aureus CCCP-pretreated, Figure 6B): 32 to 64 fold

Molecule: C[C@@H](O)[C@H]1C(=O)N2C(C(=O)O)=C(S[C@@H]3CN[C@H](C(=O)N(C)C)C3)[C@H](C)[C@H]12 [Meropenem, meropenem]
MBC [2, 15]: 10 µg/mL (≈ 26.1 µM) | MBC [2, 16]: 10 µg/mL (≈ 26.1 µM)
